The target of the test is T1, proteins of HeLa wt cells (Homo sapiens, UniProt P30837).
T1 sequence (P30837 18-517): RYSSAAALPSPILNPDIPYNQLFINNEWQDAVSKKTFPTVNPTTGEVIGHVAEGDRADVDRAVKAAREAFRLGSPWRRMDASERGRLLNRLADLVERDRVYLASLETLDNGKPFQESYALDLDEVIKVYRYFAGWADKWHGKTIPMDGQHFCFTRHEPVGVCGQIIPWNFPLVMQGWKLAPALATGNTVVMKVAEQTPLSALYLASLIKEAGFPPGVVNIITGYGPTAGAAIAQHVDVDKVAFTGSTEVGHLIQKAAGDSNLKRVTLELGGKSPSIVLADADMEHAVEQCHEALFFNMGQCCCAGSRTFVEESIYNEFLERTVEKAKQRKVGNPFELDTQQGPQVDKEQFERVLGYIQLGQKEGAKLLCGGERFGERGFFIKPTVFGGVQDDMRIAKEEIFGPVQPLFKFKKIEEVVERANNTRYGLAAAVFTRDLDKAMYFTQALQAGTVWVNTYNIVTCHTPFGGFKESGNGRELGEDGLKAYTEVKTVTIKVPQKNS
Briefly: biochemical. Particulars: for normalized.Reporter.intensity: single replicates n1-n3. As for the experimental part:
Adherent cells were washed in the dish once with DPBS and harvested by Trypsin–EDTA (0.25%, Thermo Fisher Scientific, Waltham, MA, USA, #25,200,056) treatment. After addition of 35 mL DPBS, the cells were pelleted by centrifugation (300 rcf, 5 min, 4 °C), and washed twice by re-suspending and pelleting using 45 mL and 1 mL DPBS, respectively, to remove excess trypsin and for transfer into pre-weighed 2 mL Eppendorf tubes to determine the cell pellet wet weights as quality check after centrifugation (300 rcf, 5 min, 4 °C) and complete removal of the supernatant. Cells for TPP-TR were resuspended using 1 mL, and cells for TPP-CCR were resuspended using 0.4 mL ice-cold DPBS, respectively, supplemented with protease inhibitor cocktail (Roche, Basel, Switzerland, #5,892,791,001). […] Cell suspensions were shortly centrifuged (1 s or less) using a benchtop centrifuge to release trapped air and to achieve an even liquid level without pelleting the cells. The samples were then temperature treated by a 7 min pre-incubation at RT, 3 min temperature treatment in the PCR cycler (DNA Engine Tetrad 2, lid temperature 70 °C) at different temperatures (37 °C or 50 °C for TPP-CCR or the temperatures given in Table 2 for TPP-TR) and a 3 min post-incubation at RT in a metal heating block for uniform heat dissipation.
After temperature treatment, samples were supplemented with lysis buffer (final concentrations: 0.36 U/µL benzonase, 1.5 mM MgCl2, 1 mM Na3VO4, 10 mM NaF, 2.5 mM Na4P2O7, 0.8% w/v NP-40) for 1 h on ice. The lysates were cleared from cell debris as well as denatured and precipitated proteins by centrifugation at 20,000 rcf and 4 °C for 30 min. The total protein concentration of the resulting cell extracts containing the fraction of soluble, non-denatured proteins was determined (Pierce 660 nm Protein Assay, BSA as standard). Cell extracts were shock frozen in liquid nitrogen and stored at -80 °C. The three replicates for TPP-TR and TPP-CCR were prepared on consecutive days, respectively. The two (37 °C or 50 °C) x ten (concentrations) x three (replicates) = 60 TPP-CCR samples and two (treatment and control) x ten (temperatures) x three (replicates) = 60 TPP-TR samples were analyzed by LC–MS/MS. GRASP55 was additionally quantified from the TPP-TR samples by immunoblotting as described in the respective section.
For TPP-CCR, SP3 was performed as described with slight modifications to the original protocol using on average 5 µg total protein per sample and resulting in theoretically 5 µg peptides in 22 µL 50 mM triethylammonium bicarbonate per sample. For each of the two (treatment and control) x three (replicates) = six TPP-TR temperature treatment sample sets, the same volume for each of the ten temperature samples was used for SP3 processing, thus, maintaining the information about the temperature dependent non-denatured protein content. This volume was calculated such that the lowest two temperature samples (36.5 °C and 41.2 °C) contained 10 µg total protein on average. The samples were diluted using SDS containing buffer (20 µL final, final concentrations: 7.5% glycerol, 3% SDS, 37.5 mM Tris/HCl pH 7.0) and the proteins were reduced, alkylated, and precipitated on the solid phase as described using adjusted volumes (2 × due to processing 10 µg instead of 5 µg). Volumes for washing of the aggregated proteins on the solid phase and for tryptic digestion were kept unchanged, however, to maintain the maximal total protein to trypsin/Lys-C ratio at 50:1 in the two rounds of digestion (13 h and 4 h), respectively, 2 × 0.2 µg trypsin/Lys-C was used per sample, theoretically resulting in at most about 10 µg peptides in 22 µL 50 mM triethylammonium bicarbonate.

Values joined by “and” are separate entries in the source; they are usually repeats but may differ in a detail not shown here. Equal values may be shown once.

By EC50 is commonly meant the concentration that produces a half-maximal response. The molecule `CCCCCC1=C/C(=C/c2[nH]c(-c3ccc[nH]3)cc2OC)N=C1C` [Prodigiosin, prodigiosin] showed an EC50 of 4.37 nM. In addition, the “diff pseudoR2(50-37°C)” value (ALDH1B1) was 0.88. Moreover, the “pseudoR2 (dose response curve fit, 37°C)” value (ALDH1B1, 37°C) is listed as 0.0136. The normalized.Reporter.intensity (ALDH1B1, 37°C, 0.0976562 nM prodigiosin) was -0.04 and -1.95 and 1.19. Moreover, the normalized.Reporter.intensity (ALDH1B1, 37°C, 0.390625 nM prodigiosin) is 0.86 and 1.70 and 1.19. Besides, for the setting “ALDH1B1, 37°C, 1.5625 nM prodigiosin”, the normalized.Reporter.intensity was 1.45 and -0.51 and 0.96. Moreover, for the setting “ALDH1B1, 37°C, 6.25 nM prodigiosin”, the normalized.Reporter.intensity is 2.17 and -0.34 and 2.41. Moreover, where the note is “ALDH1B1, 37°C, 25 nM prodigiosin”, the normalized.Reporter.intensity was 1.79 and 0.42 and 0.87. The normalized.Reporter.intensity (ALDH1B1, 37°C, 100 nM prodigiosin) is -0.83 and -1.09 and 2.36. Also, the normalized.Reporter.intensity (ALDH1B1, 37°C, 400 nM prodigiosin) is -1.07 and -1.13 and 1.65. Further, for the setting “ALDH1B1, 37°C, 1600 nM prodigiosin”, the normalized.Reporter.intensity was -1.06 and 0.17 and 2.67. Besides, under “ALDH1B1, 37°C, 6400 nM prodigiosin”, the normalized.Reporter.intensity was -0.10 and 1.67 and -1.95. Further, for the setting “ALDH1B1, 37°C, Hill slope of fit”, the “H (dose response curve fit parameters, 37°C)” value came to 1.47e-8. Besides, the “pseudoR2 (dose response curve fit, 50°C)” value (ALDH1B1, 50°C) was found to be 0.89. The normalized.Reporter.intensity (ALDH1B1, 50°C, 0.0976562 nM prodigiosin) was 0.23 and -0.0339 and 0.17. Moreover, the normalized.Reporter.intensity (ALDH1B1, 50°C, 0.390625 nM prodigiosin) was 0.32 and 0.04 and 0.17. Also, the normalized.Reporter.intensity (ALDH1B1, 50°C, 1.5625 nM prodigiosin) was 0.40 and 0.42 and 0.21. The normalized.Reporter.intensity (ALDH1B1, 50°C, 6.25 nM prodigiosin) is 0.69 and 0.56 and 0.41. Besides, where the note is “ALDH1B1, 50°C, 25 nM prodigiosin”, the normalized.Reporter.intensity was 0.66 and 0.74 and 0.67. The normalized.Reporter.intensity (ALDH1B1, 50°C, 100 nM prodigiosin) is 1.06 and 0.92 and 1.01. Moreover, for the setting “ALDH1B1, 50°C, 400 nM prodigiosin”, the normalized.Reporter.intensity is 0.70 and 0.97 (2×). In addition, the normalized.Reporter.intensity (ALDH1B1, 50°C, 1600 nM prodigiosin) was 0.78 and 0.95 and 0.92. For the same molecule, the normalized.Reporter.intensity (ALDH1B1, 50°C, 6400 nM prodigiosin) was 1.11 and 0.90 and 1.01. Moreover, the “H (dose response curve fit parameters, 50°C)” value (ALDH1B1, 50°C, Hill slope of fit) is recorded as 0.60.

The record behind these values is paper PMC10552397 (Cell Communication and Signaling : CCS, 2023).
